# Experimental data as given in patent publication US12383530B2, “Pharmaceutical combination for the treatment of melanoma” (Piramal Enterprises Limited, priority 2013, dated 2025).
# “And” between values parts separate entries of the source, which are not always exact repeats. Equal values may be shown once.
# Experiments:
# G361 melanoma cells [1] = test: Analysis of cell cycle distribution using flow cytometry, G361; assay type: cell-based, human; conditions: 5 days; for apoptosis (sub G1 phase): 1 μM of each compound, alone or together
# Experimental: The G361/SK-MEL3 melanoma cells were seeded in […] tissue culture flasks. After 24 h, G361 cells were treated with: i) compound A (1 μM); ii) vemurafenib (1 μM); and iii) compound A (1 μM) and vemurafenib (1 μM) together for 5 days.
# (§1) The control cells were left untreated for 5 days. Both detached and adherent cells were harvested at the end of 5 days. The cells were washed twice with approximately 5 mL of phosphate buffered saline (PBS) with centrifugation at 1000 rpm for 10 min. The cells were resuspended in 500 μL of PBS and fixed in 500 μL ice-cold 70% ethanol. The fixed cells were incubated at room temperature for 30 min, spun at 1000 rpm for 10 min. To the cell pellet, 1 mL of chilled 70% ethanol was added and stored below 0° C. till further analysis. The cells were washed twice with PBS to remove fixative and re-suspended in 250 μL PBS. To this 12.5 μL of propidium iodide (1 mg/ml in PBS) and 12.5 μL Rnase A (1 mg/mL) was added. After incubation at 37° C. for 30 min, the cells were analyzed using flow cytometry.
# (§2) A flow cytometer (Becton Dickinson FACS Calibur, USA) was used for these studies in accordance with the manufacturer's recommendations. The argon ion laser set at 488 nm was used as an excitation source. Cells with DNA content between 2n and 4n were designated as being in G1, S and G2/M phases of the cell cycle, as defined by the level of red fluorescence. […] The number of cells in each cell cycle compartment was expressed as a percentage of the total number of cells present.
# [2] = system: G361 (BRAFV600E mutated) cell line; test: CCK8 live cell dehydrogenase cytotoxicity assay, G361 (96-well); assay type: cell-based, human; conditions: 48 h
# Experimental: (§3) The cells were then treated with the respective test compounds.
# (§4) At the end of the incubation periods, the plates were assayed using the CCK8 cytotoxicity assay protocol. The synergism was determined by the combination index (CI) calculated using the Compusyn software by Chou and Talalay (4). CI<1 is synergistic, CI=1 is additive and CI>1 is antagonistic.
# (§5) Statistical analysis was performed using the Student t test, and a p value of <0.05 was considered significant. Data are expressed as the mean±standard error of the mean (SEM). The mean value was obtained from at least two independent experiments, each performed in triplicate.
# (§6) Logarithmically growing cells were plated at a density of 3×10^3 cells/well and allowed to recover for 16-18 h. […] After 48 h, cell toxicity was determined by CCK-8 reagent (Dojindo Molecular Technologies, Inc, Maryland, and Japan). In accordance with the manufacturer's instructions, 5 μL/well CCK-8 reagent was added and plates were incubated for 2 h. The toxicity was determined by measuring the absorbance on Tecan Sapphire multi-fluorescence micro-plate reader at a wavelength of 450 nm corrected to 650 nm and normalized to controls. All the experiments were performed twice in triplicates.
# [3] = system: MDAMB-435S (BRAFV600E mutated) cell line; test: CCK8 live cell dehydrogenase cytotoxicity assay, MDAMB-435S (96-well); assay type: cell-based, human; conditions: 48 h
# Experimental: as §3, §4, §5, §6
# [4] = system: A375 (BRAFV600E mutated) cell line; test: CCK8 live cell dehydrogenase assay, A375 (384-well, Example 2); assay type: cell-based, human; conditions: A375 parental, single agent, 48 h
# Experimental: Logarithmically growing human BRAFV600E mutated melanoma cells were seeded at a density of 1500 cells/well in 30 μL of Dulbecco's Modified Eagle medium medium (DMEM) in 384-well plate (Corning, USA) using Tecan automated platform (FreedomEvo Liquid handling system) and incubated for about 12-16 h to allow the cells to adhere. […] The controls used were only cells or cells along with the vehicle (DMSO).
# The plates were incubated for 48 h in humidified 5% CO2 incubator at 37°±1° C. Post incubation the plates were assayed using the CCK8 reagent (Dojindo Molecular Technologies, Inc, Maryland, and Japan). In accordance with the manufacturer's instructions, 3 μL CCK-8 reagent was added in each well of the 384 well plate and plates were incubated for 2 h. The toxicity was determined by measuring the absorbance on Tecan Sapphire multi-fluorescence micro-plate reader at a wavelength of 450 nm normalized to controls. All the experiments were performed in quadruplets.
# SK-MEL3 melanoma cells = test: Analysis of cell cycle distribution using flow cytometry, SK-MEL3; assay type: cell-based; conditions: 5 days
# Experimental: In case of SK-MEL3 melanoma cells, the cells were treated with: i) compound A (1 μM); ii) vemurafenib (10 μM); and iii) compound A (1 μM) and vemurafenib (10 μM) together for 5 days.
# as §1, §2
# [5] = system: A375R cell line (vemurafenib resistant); test: CCK8 live cell dehydrogenase assay, A375R (384-well, Example 2); assay type: cell-based, human; conditions: single agent, 48 h
# Experimental: The cytotoxicity studies using all the test compounds as single agents and in combinations were carried out using the CCK8 live cell dehydrogenase assay.
# Logarithmically growing human BRAFV600E mutated melanoma cells were seeded at a density of 1500 cells/well in 30 μL of Dulbecco's Modified Eagle medium medium (DMEM) in 384-well plate (Corning, USA) using Tecan automated platform (FreedomEvo Liquid handling system) and incubated for about 12-16 h to allow the cells to adhere. The cells were then treated for 48 h with different doses of compound A and anticancer agents (vemurafenib or dabrafenib or trametinib) as monotherapy (used singly) and in combinations. Studies using different dosages were carried out for each combination (e.g. combination of compound A and vemurafenib). […]
# The plates were incubated for 48 h in humidified 5% CO2 incubator at 37°±1° C. […] The toxicity was determined by measuring the absorbance on Tecan Sapphire multi-fluorescence micro-plate reader at a wavelength of 450 nm normalized to controls. […]
# The potency of the combination was quantified using Calcusyn software (Biosoft, Ferguson, MO, USA) which is based on the Chou Talalay method that calculates a combination index (CI) with CI values less than 1 indicating synergy.
# [6] = system: A375 (BRAFV600E mutated) cell line; test: CCK8 live cell dehydrogenase cytotoxicity assay, A375 (96-well); assay type: cell-based, human; conditions: 48 h
# Experimental: as §3, §4, §5, §6
# G361 melanoma cells [7] = test: Annexin V-FITC staining for detection of early apoptosis; assay type: cell-based, human; conditions: 1 μM of each compound, alone or together, 24 h
# Experimental: Annexin V-FITC is a sensitive probe for identifying apoptotic cells. During early apoptosis, the membrane phospholipid phosphatidyl serine (PS) is translocated from the inner to the outer leaflet of the plasma membrane, thereby exposing PS to the external cellular environment. Annexin V is a 35-36 kDa Calcium dependent phospholipid binding protein that has a high affinity for PS and binds to cells with exposed PS.
# The melanoma cells G361 was seeded in […] tissue culture flasks. After 24 h, cells were treated with: i) compound A (1 μM); ii) vemurafenib (1 μM); and iii) compound A (1 μM) and vemurafenib (1 μM) together; for 24 h. The control cells were left untreated for 24 h. Medium containing floating cells were collected and pooled with the adherent cells after harvesting with trypsin at the different time points. The cells were washed twice with cold PBS with centrifugation at 1000 rpm for 10 minutes. The cell pellet was resuspended in 1× binding buffer (10 mm HEPES pH 7.4, 140 mM NaCl, 2.5 mM CaCl2) at a concentration of 1×10^6 cells/mL. 100 μL of the solution (1×10^5 cells) were stained with Annexin V-FITC and propidium iodide. The cells were incubated for 15 min at room temperature (25-30° C.) in the dark and the sample was analysed by flow cytometry.
smiles,measurement,setting,value
"CN1CC[C@@H](c2c(O)cc(O)c3c(=O)cc(-c4ccc(C(F)(F)F)cc4Cl)oc23)[C@@H]1CO.Cl (relative stereo) [compound A, (+)-trans-2-(2-chloro-4-trifluoromethylphenyl)-5,7-dihydroxy-8-(2-hydroxy-methyl-1-methylpyrrolidin-3-yl)-chromen-4-one Hydrochloride]",apoptosis (sub G1 phase),G361 melanoma cells [1],9.48%
same,inhibition of cells,"[2]; G361, compound A 0.3 μM alone",2%
same,inhibition of cells,"[3]; MDA-MB435S, compound A 1 μM alone",32%
same,IC50,"[3]; MDAMB435S, cytotoxicity, Hydrochloride, read-out: IC50 in μM (±SEM)",0.85 µM and 0.7 µM
same,sensitivity of the cell line (dose response curve),[4],equally sensitive
same,apoptosis (sub G1 phase),SK-MEL3 melanoma cells; compound A 1 μM alone,19.63%
same,sensitivity of the cell line (dose response curve),[5],equally sensitive
same,inhibition of cells,"[6]; A375, compound A 3 μM alone",46%
same,cells in early apoptosis (annexin stained cells),G361 melanoma cells [7],8%
"CCCS(=O)(=O)Nc1ccc(F)c(C(=O)c2c[nH]c3ncc(-c4ccc(Cl)cc4)cc23)c1F [vemurafenib, reference compound]",apoptosis (sub G1 phase),G361 melanoma cells [1],2.3%
same,G1 arrest,"G361 melanoma cells [1]; vemurafenib 1 μM, control cells 72.36%",91.94%
same,inhibition at 1 µM,"[2]; Homo sapiens, G-361, G361, vemurafenib 1 μM alone, read-out: inhibition of cells",30%
same,inhibition at 1 µM,"[3]; Homo sapiens, MDA-MB-435S, MDA-MB435S, vemurafenib 1 μM alone, read-out: inhibition of cells",31%
same,apoptosis (sub G1 phase),SK-MEL3 melanoma cells; vemurafenib 10 μM alone,15.12%
same,G1 arrest,"SK-MEL3 melanoma cells; vemurafenib 10 μM, control cells 67.38%",76.78%
same,inhibition at 1 µM,"[6]; Homo sapiens, A-375, A375, vemurafenib 1 μM alone, read-out: inhibition of cells",23%
same,cells in early apoptosis (annexin stained cells),G361 melanoma cells [7],20%
